According to patent publication EP0143016A1, “Derivatives of 4-(3-alkynyloxy-2-hydroxy-propyl)-piperazin-1-yl-N-phenyl acetamide, their preparation and their therapeutical use” (RIOM LABORATOIRES- C.E.R.M. "R.L.-CERM" - (S.A.), priority 1983, dated 1985):

Legend:
chien anesthésié [1] = test: Hemodynamic effects in the anesthetized dog: coronary arterial flow; assay type: in vivo; settings: duration of action (durée d'action), unit not given; dog anesthetized with chloralose; 5 mg.kg^-1 I.V.
Experimental: (§1) L'activité anti-angineuse des composés de l'invention a été étudiée chez l'animal en recherchant leurs effets hémodynamiques sur le chien anesthésié, conformément au protocole résumé ci-après.
(§2) Chez le chien anesthésié au chloralose (100 mg.kg^-1 I.V.), les paramètres suivants sont enregistrés : • - fréquence cardiaque à l'aide d'électrodes à E C G sous-cutanée reliées à un cardiotachymètre BECKMAN (dérivation D II) • - débit artériel coronaire enregistré par l'intermédiaire d'un débitmètre électromagnétique STATHAN® • - on étudie aussi l'action antitachycardisante en mesurant son activité inhibitrice des effets chronotropes positifs de l'isoprénaline.
(§3) Les différents paramètres sont enregistrés en continu sur un dynographe BECKMAN®, et on mesure en même temps la durée d'action.
(§4) Les composés de l'invention sont administrés par voie I.V. à la dose de 5 mg.kg^-1.
(§5) Les résultats enregistrés, exprimés sous forme de pourcentage de variation, sont résumés dans le tableau I ci-après.

chien anesthésié [2] = test: Hemodynamic effects in the anesthetized dog: heart rate; assay type: in vivo; settings: duration of action (durée d'action), unit not given; dog anesthetized with chloralose; 5 mg.kg^-1 I.V.
Experimental: as §1, §2, §3, §4, §5

[3] = tested on: effets chronotropes positifs de l'isoprénaline; test: Antitachycardic action in the anesthetized dog: inhibition of the positive chronotropic effects of isoprenaline; assay type: in vivo, chien; settings: duration of action (durée d'action), unit not given; isoprenaline tachycardia; dog anesthetized with chloralose; 5 mg.kg^-1 I.V.
Experimental: as §1, §2, §3, §4, §5

Structure (SMILES)	DEBIT CORONAIRE D (chien anesthésié [1])	FREQUENCE CARDIAQUE D (chien anesthésié [2])	ANTITACHY-CARDIE D [3]
CC#CC1(OCC(O)CN2CCN(CC(=O)N(C)c3ccc(Cl)cc3C(=O)c3ccccc3)CC2)CCCCC1 (stereo not drawn) [compound 2]	3	60	60
C#CC(C)(OCC(O)CN1CCN(CC(=O)Nc2ccc(Cl)cc2C(=O)c2ccccc2Cl)CC1)c1ccccc1 (stereo not drawn) [compound 6, 4-[3-(α-ethynyl-α-methyl-benzyloxy)-2-hydroxy-propyl]-piperazin-1-yl-N-[2-(2-chlorobenzoyl)-4-chloro-phenyl]acetamide]	3	>45	15
C#CC1(OCC(O)CN2CCN(CC(=O)N(C)c3ccc(Cl)cc3C(=O)c3ccccc3)CC2)CCCCC1 (stereo not drawn) [compound 7]	2	>15	5
CC#CC1(OCC(O)CN2CCN(CC(=O)Nc3ccc(Cl)cc3C(=O)c3ccccc3Cl)CC2)CCCCC1 (stereo not drawn) [compound 9]	2	5	5
C#CC1(OCC(O)CN2CCN(CC(=O)Nc3ccc(Cl)cc3C(=O)c3ccccc3Cl)CC2)CCCCC1 (stereo not drawn) [compound 4, 4-[3-(1-ethynyl-cyclohexyloxy)-2-hydroxy-propyl]-piperazin-1-yl-N-[4-chloro-2-(2-chlorobenzoyl)-phenyl] acetamide]	1	>15	35
C#CC(C)(OCC(O)CN1CCN(CC(=O)N(C)c2ccc(Cl)cc2C(=O)c2ccccc2)CC1)c1ccccc1 (stereo not drawn) [compound 10]	0,5	15	15
